Data reported in patent US8153410B2, “Alternate morpheein forms of allosteric proteins as a target for the development of bioactive molecules” (Fox Chase Cancer Center, priority 2003, dated 2012).
Like-named read-outs stand apart in the source and are kept apart here.

Experiments:
V. cholerae PBGS = experiment: native PAGE gel shift of V. cholerae PBGS; assay type: biochemical; conditions: V. cholerae PBGS ~1 mg/ml
Procedure: (§1) FIG. 33 illustrates the species-specific effects of morphlock-1 on PBGS—FIG. 33(a) Dose-response curves showing morphlock-1 inhibition of pea PBGS at 1 μg/ml (∘) and human PBGS at 0.6 μg/ml (Δ) and 10 μg/ml (□). The proteins were incubated in the presence of 10× inhibitor for 30 minutes at 37° C. prior to assay. The concentrations on the X-axis represent the final concentration of morphlock-1 in the assay. FIG. 33(b). The IC50 for morphlock-1 is a function of pea PBGS concentration. IC50 values were determined as per part (a) using the noted concentrations of pea PBGS. (c) Native PAGE evaluation of the effect of morphlock-1 on the quaternary structure equilibria of PBGS (˜1 mg/ml) from D. melanogaster, P. aeruginosa, V. cholerae, and H. sapiens. Note that the charge/mass ratio is not the same for PBGS from different species.
(§2) The putative morphlock-1 binding site is phylogenetically variable (see below). As such, morphlock-1 would not be expected to inhibit human PBGS. The effect of morphlock-1 on the activity of human PBGS was also determined at the midpoint of the protein concentration-dependent specific activity. […] To further establish the species-selectivity of morphlock-1, the gel shift assay was also carried out for PBGS from P. aeruginosa, and V. cholerae.

pea PBGS = biological target: T1, pea PBGS (Pisum sativum, UniProt P30124, C394A); experiment: native PAGE gel shift of pea PBGS octamer/hexamer equilibrium; assay type: biochemical
T1 construct: made in house
T1 sequence (P30124 69-398 C394A): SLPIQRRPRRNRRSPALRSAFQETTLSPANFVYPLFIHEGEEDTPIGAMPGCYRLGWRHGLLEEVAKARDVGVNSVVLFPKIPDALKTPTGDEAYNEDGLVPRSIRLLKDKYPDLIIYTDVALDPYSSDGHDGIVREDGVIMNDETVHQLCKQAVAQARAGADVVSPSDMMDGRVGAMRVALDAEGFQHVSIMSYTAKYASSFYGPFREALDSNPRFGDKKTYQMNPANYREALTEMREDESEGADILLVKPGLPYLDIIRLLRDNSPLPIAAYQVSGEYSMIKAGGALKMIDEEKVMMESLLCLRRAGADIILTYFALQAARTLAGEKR
Procedure: FIG. 32(a) The inhibitor morphlock-1 is illustrated as posed by Glide. The subunits A, B, and E are illustrated as ribbon diagram. Morphlock-1 is shown with carbon atoms and illustrated as ball and stick. FIG. 32(b) The chemical structure of morphlock-1. […] Pea PBGS was incubated with various concentrations of morphlock-1 (in a DMSO solution). Each concentration of morphlock-1 with a fixed amount of DMSO was incubated with protein for 30 minutes at 37° C. prior to resolution on 12.5% polyacrylamide native PhastGels. […] (d) The protein concentration dependence of pea PBGS specific activity is illustrated. PBGS (at varied concentrations) was incubated in the presence of DMSO (●) or 50 μM morphlock-1 in DMSO (∘) for 30 minutes at 37° C. prior to assay. The final concentration of morphlock-1 in the inhibited assay was 5 μM, and the concentration of PBGS in the inhibited and control assays ranged from 0.05-50 μg/mL (0.014-1.4 μM).
FIG. 34(b) Hexameric pea PBGS (1 mg/mL, prepared by dialysis against low ionic strength) was incubated with DMSO (left) or 500 μM morphlock-1 (right) for 30 minutes at 37° C. ALA was added at the indicated concentrations, and the incubation was continued for 30 minutes prior to resolution on 12.5% polyacrylamide native PhastGels. […] Morphlock-1 concentrations are listed at the top of each lane. Protein samples for left-most gel were at 50 μg/ml (1.4 μM subunit) and 1 mM ALA; protein detection is by silver staining. Samples for the middle gel were also at 50 μg/ml (1.4 μM subunit) and 1 mM ALA; the gel was activity stained. Samples for the right-most gel were at 5 μg/ml (0.14 μM subunit) and 10 mM magnesium; protein detection is by Krypton Infrared staining.
FIG. 41 illustrates native PAGE screening of compounds. Octameric PBGS (1 mg/mL) was incubated with DMSO or 2 mM of each compound for 30 minutes at 37° C. prior to resolution on 12.5% polyacrylamide native PhastGels. […] Each compound is identified by its box address. The compound B6 is morphlock-1.
The interconversion of pea PBGS hexamer and octamer is a dynamic equilibrium that responds to protein concentration, substrate concentration, magnesium concentration, inhibitor concentration, and ionic strength.

human PBGS [1] = biological target: T2, human PBGS (Homo sapiens, UniProt P13716); experiment: human PBGS activity assay with morphlock-1; assay type: biochemical
T2 sequence (P13716 1-330): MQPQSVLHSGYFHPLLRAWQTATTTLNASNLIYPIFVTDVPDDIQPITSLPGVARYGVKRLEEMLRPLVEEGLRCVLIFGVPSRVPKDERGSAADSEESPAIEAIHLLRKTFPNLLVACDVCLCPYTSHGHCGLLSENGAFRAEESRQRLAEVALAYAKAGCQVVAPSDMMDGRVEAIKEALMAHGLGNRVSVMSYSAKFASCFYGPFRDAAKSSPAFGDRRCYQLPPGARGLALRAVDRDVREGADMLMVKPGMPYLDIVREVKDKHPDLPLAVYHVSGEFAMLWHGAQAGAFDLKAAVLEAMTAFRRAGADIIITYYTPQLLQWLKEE
Procedure: as §1, §2

human PBGS [2] = biological target: T2, human PBGS; experiment: native PAGE gel shift of human PBGS; assay type: biochemical, H. sapiens
Procedure: as §1, §2

O=C1Nc2ccc(S(=O)(=O)NCC(O)c3ccc([N+](=O)[O-])cc3)c3cccc1c23 (centres unmarked) [morphlock-1, 2-oxo-1,2-dihydro-benzo(cd)indole-6-sulfonic acid[2-hydroxy-2-(4-nitro-phenyl)-ethyl]-amide]
perturbation of the quaternary structure equilibrium, gel shift assay (V. cholerae PBGS): did not cause any perturbation of the quaternary structure equilibrium
IC50 (pea PBGS; 5 μg/ml pea PBGS and 10 mM magnesium, Krypton IR detection, read-out: apparent IC50, native PAGE): 1 to 3 µM
IC50 (pea PBGS; 50 μg/ml (1.4 μM subunit) pea PBGS and 1 mM ALA, silver stain, read-out: apparent IC50, native PAGE): ~100 µM
native PAGE screening: shift of oligomeric equilibrium (pea PBGS; PBGS 1 mg/mL, 2 mM compound, 30 minutes at 37° C.): dramatically shift the oligomeric equilibrium to the hexamer
hexamer converted to octamer by ALA in the presence of morphlock-1 (pea PBGS; hexameric pea PBGS 1 mg/mL, 2 mM morphlock-1, 5 mM ALA): ~50%
IC50 (pea PBGS; non-equilibrium conditions, 1 mg/ml (~28 μM subunits) pea PBGS, read-out: observed IC50 in native PAGE analyses): ~500 µM
effect on pea PBGS morpheein equilibrium, native PAGE (pea PBGS; pea PBGS 1 mg/mL, various concentrations of morphlock-1, 30 minutes at 37° C.): draws the pea PBGS morpheein equilibrium entirely to the hexamer in a dose dependent fashion
Coomassie and activity stained native PAGE: binding to hexameric assembly (pea PBGS; pea PBGS 1 mg/ml, morphlock-1 at 2 mM): prevents the substrate mediated conversion of hexamer to octamer
effect on the protein concentration-dependent specific activity for human PBGS (human PBGS [1]; 5 μM morphlock-1): has no affect
inhibition of human PBGS activity (human PBGS [1]; midpoint of the protein concentration-dependent specific activity): does not inhibit human PBGS
effect on mobility of human PBGS on native PAGE gel (human PBGS [2]): nor does it effect the mobility of human PBGS
